Data from patent US20070092551A1, “Therapeutic agent” (TAKARA BIO INC., priority 2003, published 2007).

Legend:
3T3-L1 cells = test: Induction of adipocyte differentiation (amount of triglyceride biosynthesis); type: cell-based; settings: Mus musculus, 3T3-L1, X=(S−N)/(P−N) of amount of triglyceride, P=insulin positive control, read-out: Action for Induction of Differentiation
Protocol: Induction of adipocyte differentiation was carried out by partially modifying the above-mentioned method of Rubin C. S. et al. In addition, as a test compound, a compound prepared in Examples mentioned above or a commercially available compound was used. 3T3-L1 cells (ATCC CCL-92.1) were suspended in a 10% fetal bovine serum (manufactured by Bio Whittaker)-containing Dulbecco's modified Eagle's medium (manufactured by Sigma, D6046) containing 200 μM ascorbic acid so as to have a density of 4×10^3 cells/mL, and the suspension was put in each well of a 12-well microtiter plate in an amount of 2 ml per well. The cells were cultured at 37° C. for 7 days in the presence of 5% carbon dioxide gas. On the seventh day, the medium was exchanged with a 10% fetal bovine serum (manufactured by Bio Whittaker)-containing Dulbecco's modified Eagle's medium containing 200 μM ascorbic acid and 0.25 μM dexamethasone, and a test compound dissolved in dimethyl sulfoxide in a concentration shown in each of Tables 16 to 19 was added to each well. Here, there were set a group with addition of 4 μL of an aqueous solution containing 5 mg/mL insulin (manufactured by TAKARA BIO INC.) as a positive control, and a group with addition of dimethyl sulfoxide as a negative control. After 45 hours, the medium was exchanged with a 10% fetal bovine serum-containing Dulbecco's modified Eagle's medium containing 200 μM ascorbic acid. A test compound, 2 μL of an aqueous solution containing 5 mg/mL insulin as a positive control, or dimethyl sulfoxide as a negative control was put to each well in the same concentration. The cells were cultured for additional 7 days. In addition, the medium was exchanged on after 2 days and after 5 days, and at that time, a test compound, 2 μL of an aqueous solution containing 5 mg/mL insulin as a positive control, or dimethyl sulfoxide as a negative control was put to each well in the same concentration.
The amount of triglyceride in the adipocytes was determined as an index of induction of differentiation into mature adipocytes, and also, as the evaluation of insulin-mimetic action.
After the termination of the culture, the medium was removed, and the cells were washed twice with a phosphate buffered saline. One milliliter of a solvent of hexane:isopropanol=3:2 was added to the cells. The mixture was allowed to stand at room temperature for 30 minutes, and thereafter the supernatant was collected. The procedures were repeated again, and 2 mL of the supernatant was concentrated to dryness. The precipitate was dissolved in 100 μL of isopropanol, and the amount of triglyceride contained in 10 μL of the solution was determined using a triglyceride E-test (manufactured by Wako Pure Chemical Industries, Ltd., code 432-40201). In addition, all the determinations were carried out twice. The action for induction of differentiation was calculated by the following calculation formula, and shown by four ranks of +++, ++, + and +/−. • S: Amount of triglyceride in the presence of a test compound; • N: Amount of triglyceride in the negative control; and • P: Amount of triglyceride in the positive control; X=(S−N)/(P−N) (Judgment of Action for Induction of Differentiation)

[1] = test system: mature adipocytes (3T3-L1 cells); test: Enhancing action on glucose uptake (2-deoxyglucose) into mature adipocytes; type: cell-based; settings: Mus musculus, 3T3-L1, X=(S−N)/(P−N) of 2-deoxyglucose uptake, P=insulin 1 μg/mL, read-out: Enhancing Action on Glucose Uptake

| SMILES | activation at 3 µM (3T3-L1 cells) [%] | activation at 10 µM (3T3-L1 cells) [%] | activation at 3 µM [1] [%] | activation at 10 µM [1] [%] | activation at 30 µM [1] [%] | activation at 30 µM (3T3-L1 cells) [%] | activation at 1 µM (3T3-L1 cells) [%] |
| --- | --- | --- | --- | --- | --- | --- | --- |
| COc1ccc(/C=C/C(=O)c2c(OC)cc(OC)c(CC=C(C)C)c2O)cc1 [Compound (C046), 4,4′,6′-trimethoxy-2′-hydroxy-3′-prenylchalcone] | 60 to 100 | > 100 | 15 to 30 | > 100 | > 100 | – | – |
| CCOc1ccc(C(C)=O)c(O)c1CC=C(C)C [Compound (C047), 2′-hydroxy-3′-prenyl-4′-ethoxyacetophenone] | – | 30 to 60 | 30 to 60 | 60 to 100 | > 100 | 60 to 100 | – |
| CCOc1ccc(C(C)=O)c(O)c1C/C=C(\C)CCC=C(C)C [Compound (C048), 2′-hydroxy-3′-geranyl-4′-ethoxyacetophenone] | – | > 100 | 15 to 30 | 30 to 60 | > 100 | > 100 | – |
| CCOc1ccc(C(=O)/C=C/c2ccc(O)cc2)c(O)c1CC=C(C)C [Compound (C049), 4,2′-dihydroxy-3′-prenyl-4′-ethoxychalcone] | 15 to 30 | 15 to 30 | – | 30 to 60 | > 100 | – | – |
| COc1ccc(C(C)=O)c(O)c1C/C=C(\C)CC/C=C(\C)CCC=C(C)C [Compound (C052), 2′-hydroxy-3′-farnesyl-4′-methoxyacetophenone] | – | 30 to 60 | 15 to 30 | 30 to 60 | 30 to 60 | – | – |
| COc1ccc(C(C)=O)c(O)c1Cc1ccccc1 [Compound (C055), 2′-hydroxy-3′-benzyl-4′-methoxyacetophenone] | 15 to 30 | 30 to 60 | 15 to 30 | 30 to 60 | 60 to 100 | – | – |
| COc1ccc(C(=O)/C=C/c2ccc(O)cc2)c(O)c1Cc1ccccc1 [Compound (C056), 4,2′-dihydroxy-3′-benzyl-4′-methoxychalcone] | 30 to 60 | > 100 | 15 to 30 | > 100 | > 100 | – | 15 to 30 |
| O=C(/C=C/c1ccc(O)cc1)c1ccc(O)c(Cc2ccccc2)c1O [Compound (C057), 4,2′,4′-trihydroxy-3′-benzylchalcone] | 30 to 60 | > 100 | – | 15 to 30 | > 100 | – | – |
| CC(=O)c1ccc(OCC=C(C)C)cc1C [Compound (C059), 2′-methyl-4′-prenyloxyacetophenone] | 15 to 30 | 30 to 60 | – | 15 to 30 | 30 to 60 | > 100 | – |
| CC(=O)Oc1ccc(/C=C/C(=O)c2ccc(OC(C)=O)c(C/C=C(\C)CCC=C(C)C)c2OC(C)=O)cc1 [Compound (C061), 4,2′,4′-triacetoxy-3′-geranylchalcone] | 60 to 100 | > 100 | – | – | 30 to 60 | – | – |
| COc1ccc(C(=O)/C=C/c2ccc(OC(C)=O)cc2)c(OC(C)=O)c1C/C=C(\C)CCC=C(C)C [Compound (C064-1), 4,2′-diacetoxy-3′-geranyl-4′-methoxychalcone] | > 100 | > 100 | – | 60 to 100 | > 100 | – | – |
| COc1ccc(C(=O)/C=C/c2ccc(O)cc2)c(OC(C)=O)c1C/C=C(\C)CCC=C(C)C [Compound (C064-2), 2′-acetoxy-3′-geranyl-4-hydroxy-4′-methoxychalcone] | > 100 | > 100 | 15 to 30 | 30 to 60 | > 100 | – | – |
| O=C(/C=C/c1ccc(Cl)cc1)c1ccccc1OCc1ccccc1 [Compound (C066), 4-chloro-2′-benzyloxychalcone] | 60 to 100 | > 100 | – | 60 to 100 | 60 to 100 | – | – |
| COc1ccc(/C=C/C(=O)c2ccc(OC)c(CC=C(C)C)c2O)c(O)c1CC=C(C)C [Compound (C072), 2,2′-dihydroxy-3,3′-diprenyl-4,4′-dimethoxychalcone] | > 100 | > 100 | – | – | 30 to 60 | – | – |
| CC(C)=CCC/C(C)=C/Cc1c(OCc2ccccc2)ccc(C(=O)/C=C/c2ccc(O)cc2)c1O [Compound (C073), 4,2′-dihydroxy-3′-geranyl-4′-benzyloxychalcone] | 15 to 30 | – | 15 to 30 | 15 to 30 | – | – | – |
| CC(C)=CCC/C(C)=C/Cc1c(O)ccc(C(=O)/C=C/c2ccc(Cl)cc2)c1O [Compound (C074), 4-chloro-2′,4′-dihydroxy-3′-geranylchalcone] | 15 to 30 | 30 to 60 | – | – | 30 to 60 | – | – |
| CC(C)=CCc1c(O)ccc(C(=O)/C=C/c2ccc(Cl)cc2)c1O [Compound (C075), 4-chloro-2′,4′-dihydroxy-3′-prenylchalcone] | 15 to 30 | 30 to 60 | – | 15 to 30 | 30 to 60 | – | – |
| COc1ccc(C(=O)/C=C/c2cccc([N+](=O)[O-])c2)c(O)c1CC=C(C)C [Compound (C076), 3-nitro-2′-hydroxy-3′-prenyl-4′-methoxychalcone] | > 100 | > 100 | 15 to 30 | 30 to 60 | > 100 | – | 60 to 100 |
| COc1ccc(C(=O)/C=C/c2ccc(O)cc2)c(OCc2ccccc2)c1CC=C(C)C [Compound (C077), 4-hydroxy-2′-benzyloxy-3′-prenyl-4′-methoxychalcone] | 30 to 60 | – | – | 30 to 60 | 30 to 60 | – | – |
| COc1ccc(C(=O)/C=C/c2ccc(OC(C)=O)cc2)c(O)c1CC=C(C)C [Compound (C078), 4-acetoxy-2′-hydroxy-3′-prenyl-4′-methoxychalcone] | – | 30 to 60 | – | 15 to 30 | > 100 | > 100 | – |
| COc1ccc(C(=O)/C=C/c2ccc(Cl)cc2)c(OC(C)=O)c1CC=C(C)C [Compound (C079), 4-chloro-2′-acetoxy-3′-prenyl-4′-methoxychalcone] | 60 to 100 | > 100 | > 100 | 60 to 100 | > 100 | – | – |
| COc1ccc(C(=O)/C=C/c2ccc(Cl)cc2)c(OC(C)=O)c1C/C=C(\C)CCC=C(C)C [Compound (C080), 4-chloro-2′-acetoxy-3′-geranyl-4′-methoxychalcone] | > 100 | > 100 | – | 30 to 60 | 60 to 100 | – | 60 to 100 |
| COc1ccc(C(=O)/C=C/c2ccco2)c(O)c1CC=C(C)C [Compound (FUR-1), 3-(2-furyl)-1-(2-hydroxy-3-prenyl-4-methoxyphenyl)-2-propen-1-one] | 30 to 60 | > 100 | – | 15 to 30 | 60 to 100 | – | 15 to 30 |
| CC(C)=CCc1c(O)ccc(C(=O)/C=C/c2ccc(O)cc2)c1O [Isobavachalcone] | 30 to 60 | 60 to 100 | 15 to 30 | 60 to 100 | > 100 | – | – |
